The test system of experiment [1] is collagen type IV. Put plainly: Immunofluorescent staining of HSC cultures, collagen type IV. As to conditions: 0.625 μM, 24-48 hours. The class given is cell-based, human. Here is the method:
Human Hepatic Stellate cells (LX-2 cell line) (HSCs) were obtained from the Key Lab of Regenerative Medicine, Jinan University, Guangzhou, China, which were maintained in Dulbecco's Modified Eagle Medium (DMEM)+10% fetal calf serum and penicillin-streptomycin (100 unit/ml and 0.1 mg/ml, respectively), in 5% CO2 at 37° C. inside a humidified cell incubator. The culture medium was changed every three days. To test the effects of small molecule Hesperadin on the mouse and human HSCs, the cultures were treated with 0.625 μM of Hesperadin for 48 hrs. The cultures were then fixed in ice cold 70% ethanol and incubated in phosphate buffered saline with RNase (0.25 mg/ml), Propidium iodide dye (40 μg/ml) and 0.1% Triton X for an hour at room temperature. For cell cycle analysis, the Propidium iodide stained cells were examined using a flow cytometer (“BD LSRFortessa Cell Analyzer”). The proliferation of HSCs was also evaluated by the MTT staining assay with 3-(4,5-Dimethylthiazol-2-yl)-2,5-diphenyltetrazolium bromide). […] The absorbance (at 570 nm) was measured using a BIORAD 3550 Microplate Reader. […] After washing, the sections were viewed and recorded using a FluoView FV1000 Confocal microscope and/or a Nikon i80 microscope respectively to identify the presence of HSC expressing collagens. The positive staining of Collagen types I, III and IV was analyzed with the Metamorph software.

The test system of experiment [2] is collagen 1A1 gene expression. Nature of the experiment: Real-time RT-PCR in HSC, collagen 1A1. The following applies: 0.625 μM, FIG. 7. The class given is cell-based, human. Here is the method:
Human Hepatic Stellate cells (LX-2 cell line) (HSCs) were obtained from the Key Lab of Regenerative Medicine, Jinan University, Guangzhou, China, which were maintained in Dulbecco's Modified Eagle Medium (DMEM)+10% fetal calf serum and penicillin-streptomycin (100 unit/ml and 0.1 mg/ml, respectively), in 5% CO2 at 37° C. inside a humidified cell incubator. The culture medium was changed every three days. To test the effects of small molecule Hesperadin on the mouse and human HSCs, the cultures were treated with 0.625 μM of Hesperadin for 48 hrs. […] The proliferation of HSCs was also evaluated by the MTT staining assay with 3-(4,5-Dimethylthiazol-2-yl)-2,5-diphenyltetrazolium bromide). […] The absorbance (at 570 nm) was measured using a BIORAD 3550 Microplate Reader. […]
Collagen type-I, -III and -VI, MMP-2, MMP-9 and TIMP-1 gene expression was determined using quantitative real-time PCR. […] Quantitation of mRNA levels was performed using a SYBR® Premix Ex Taq™ Kit (Takara) in an Applied Biosystems 7900HT Fast Real-Time PCR System. To quantify the amount of specific mRNA in the samples, a standard curve was generated for each PCR run using four amounts of the cDNA synthesized from our HSC cultures and liver samples. […] Data was analyzed using a StatView software (Abacus Concepts Inc) with Student's t-test.

For experiment [3], the system named is human HSC (LX-2) cells. Put plainly: Cell cycle analysis by flow cytometry (propidium iodide). As to conditions: 0.625 μM, vs control cultures. Type of experiment: cell-based. Here is the method:
Human Hepatic Stellate cells (LX-2 cell line) (HSCs) were obtained from the Key Lab of Regenerative Medicine, Jinan University, Guangzhou, China, which were maintained in Dulbecco's Modified Eagle Medium (DMEM)+10% fetal calf serum and penicillin-streptomycin (100 unit/ml and 0.1 mg/ml, respectively), in 5% CO2 at 37° C. inside a humidified cell incubator. The culture medium was changed every three days. To test the effects of small molecule Hesperadin on the mouse and human HSCs, the cultures were treated with 0.625 μM of Hesperadin for 48 hrs. The cultures were then fixed in ice cold 70% ethanol and incubated in phosphate buffered saline with RNase (0.25 mg/ml), Propidium iodide dye (40 μg/ml) and 0.1% Triton X for an hour at room temperature. For cell cycle analysis, the Propidium iodide stained cells were examined using a flow cytometer (“BD LSRFortessa Cell Analyzer”). The proliferation of HSCs was also evaluated by the MTT staining assay with 3-(4,5-Dimethylthiazol-2-yl)-2,5-diphenyltetrazolium bromide). HSCs were plated at 1×10^4 cells/ml and culture overnight. Hesperadin (in serial dilutions) was then added into the culture medium for 48 hours. This was followed by addition of MTT (250 μg/ml) for a further 4 hours. The medium was eluted and the formazan crystal was dissolved in 100 μL of DMSO. The absorbance (at 570 nm) was measured using a BIORAD 3550 Microplate Reader. […]

Entries after “also recorded” stand apart in the source; their conditions may differ.

`CCS(=O)(=O)Nc1ccc2c(c1)/C(=C(/Nc1ccc(CN3CCCCC3)cc1)c1ccccc1)C(=O)N2` [Hesperadin, (Z)—N-(2-oxo-3-(Phenyl(4-(piperidin-1-ylmethyl)phenylamino)methylene)indolin-5-yl)ethanesulfonamide]: in experiment [1], the “collagen type IV expression (immunofluorescence)” value is recorded as “significantly inhibited; also recorded: inhibits the synthesis of collagen type IV”. Moreover, the “Collagen 1A1 mRNA expression” value in experiment [2] is recorded as “confirmed by real-time RT-PCR analysis”. Further, the “cell-cycle progression of HSCs” value in experiment [3] is “significantly more HSCs in the G2-M phase; also recorded: appeared to block cytokinesis”.
